EC50, IC50 and outcome data for 54 compounds are collected here from PubChem BioAssay AID179 (DTP/NCI, 2004).

In this experiment the test system is CEM cells HIV-1 protection, formazan growth assay. The experiment in a line: NCI AIDS Antiviral Assay. As to conditions: for IC50: measured here: growth of uninfected CEM cells. The procedure, abridged: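 Human CEM cells, uninfected and HIV-1-infected, received five drug concentrations, and growth was read by soluble formazan assay. Compounds giving at least 50% protection were retested; reproducible 100% protection defined confirmed active.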

Activity calls are given as the source filed them.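 Rule for the calls: active = compounds giving half or more protection of infected cells from virus-caused growth loss, again on retest; inactive = the rest.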

The EC50 is the concentration giving half of the maximal effect. What is called IC50 is the concentration needed to halve the response being measured. A high value points to lower potency.

Regarding `C=CCc1cc(OC)c2c(c1)C(O)CC(c1ccccc1)O2` (configuration not stated), the EC50 was > 170 µM and the IC50 is > 170 µM.
In the case of `O=c1[nH]c(N2CCOCC2)nc2cc3ccccc3cc12`, the EC50 is > 155 µM and the half-maximal inhibitory concentration (IC50) was > 155 µM.
With `O=C1C[C@@H](c2ccccc2)O[C@@H](c2ccccc2)C1`, the EC50 is > 200 µM and the IC50 worked out at 112 µM.
For `CC1(C)CNC[C@](C)(OCCO)C(=O)[N-]C(C)(C)CNC[C@@](C)(OCCO)C(=O)[N-]1.[Ni+2]`, the EC50 is > 200 µM and the 50% inhibitory concentration (IC50) was 182 µM.
Take `NC(=O)c1c(N)ncn1C1OC(CO)C(F)C1O` (configuration not stated): the EC50 was > 200 µM and the IC50 is > 200 µM.
For `CCCCNCC(=O)O[C@]1(CC)C(=O)OCc2c1cc1n(c2=O)Cc2cc3ccccc3nc2-1`, the EC50 was > 10 µM and the half-maximal inhibitory concentration (IC50) is 0.0776 µM.
Taken in the same sequence, the figures for `COP(=O)(OC)/C(=C/c1c[nH]c2ccccc12)C(=O)O` were > 200 µM and > 200 µM.
With `Cc1ccccc1NC(=O)c1cc(-c2ccc([N+](=O)[O-])cc2)nc(=S)[nH]1`, the EC50 is > 490 µM and the IC50 is > 490 µM.
For the compound `O=C(O)c1ccccc1P(=O)(O)c1ccccc1`, the EC50 was > 200 µM and the 50% inhibitory concentration (IC50) is > 200 µM.
As to `C#CCN(Cc1ccc2nc(-c3ccccc3)c(Cl)nc2c1)c1ccc(Cl)c(Cl)c1`, the EC50 is > 200 µM and the half-maximal inhibitory concentration (IC50) was > 200 µM.
On to `O=C(CCc1ccc(O)cc1)NCCc1cccc(O)c1`, for which the EC50 is 43.7 µM and the IC50 is > 100 µM.
For the compound `Nc1ccc(S(=O)(=O)Nc2cnc3ccccc3n2)cc1`, the EC50 is > 316 µM and the 50% inhibitory concentration (IC50) was > 316 µM.
In the case of `CC1(C)O[C@H]2OC(CO[Si](C)(C)C(C)(C)C)C(N=[N+]=[N-])[C@H]2O1` (some centres not stated), the EC50 was > 20 µM and the IC50 was > 20 µM.
Turning to `CCOC1OC2O[C@]3(C)CCC4C(C)CCC([C@H]1C)C24OO3` (some centres not stated), the outcome was inactive.
Turning to `O=C(NO)Nc1ccc(Cl)cc1`, the result was inactive and the IC50 was 251 µM.
Consider `COC(=O)C1=C(\c2ccccc2)c2ccccc2C(=O)N(C2CCCCC2)/C=C\1`, for which the EC50 is > 200 µM and the IC50 came out at 25.7 µM.
The corresponding values for `COc1ccc(N=c2ssc(SC)c2-c2ccccc2)cc1` are > 200 µM and 46.8 µM.
In the case of `Nc1nc2ccc(CO)nc2c(=O)[nH]1`, the EC50 is > 200 µM and the IC50 is > 200 µM.
On to `CC1=C(N2CCOCC2)C(N2CCOCC2)=C(C)C(=O)C1=O`, for which the EC50 is > 200 µM and the IC50 is 14.5 µM.
Consider `O=C1Oc2ccccc2C(=O)/C1=C1/C=C(c2ccccc2)SS1`, for which the EC50 is > 200 µM and the half-inhibitory concentration (IC50) was > 200 µM.
Take `NC(=Nc1c([N+](=O)[O-])cnc2ccccc12)N1CCOCC1`: the EC50 is > 200 µM and the IC50 was found to be 126 µM.
Turning to `O=[N+]([O-])c1cc(F)ccc1Sc1ccccc1`, the EC50 is > 200 µM and the IC50 came to 95.5 µM.
In the case of `CN(C)c1ccc(/C=C/c2ccc3ccccc3[n+]2C)cc1`, the EC50 was 0.0631 µM and the IC50 was determined as 0.398 µM.
As for `CC(C)(C)c1cc(C(=O)Nc2cc(Br)c(Br)cc2S(N)(=O)=O)cc(C(C)(C)C)c1O`, the EC50 was > 200 µM and the IC50 came to 8.13 µM.
On to `O=C1c2ccccc2C(=O)c2c1oc1cc(O)c(Cl)cc21`, for which the EC50 is > 16.6 µM and the IC50 was > 16.6 µM.
For `O=C1Oc2ccccc2C(=O)/C1=C/N1C(=O)N/C(=C\c2ccccc2Br)C1=O`, the EC50 is > 200 µM and the IC50 is 83.2 µM.
Regarding `O=C(COC(=O)c1cccc2c(=O)c3ccccc3[nH]c12)Nc1ccc(C(=O)O)cc1`, the result was inactive.
On to `O=C1C(c2[nH]c3cc4c(cc3c2O)OCO4)=Nc2cc3c(cc21)OCO3`, for which the EC50 is > 100 µM and the IC50 is 14.8 µM.
On to `CCOC(=O)C1=c2[nH]c3cccc4cccc(c43)n2C(=O)CC1`, for which the EC50 was > 200 µM and the concentration for half-maximal inhibition (IC50) turned out to be 12.3 µM.
Consider `CC(C)N(C(C)C)P(OCCC#N)OC1CC(n2cnc3c(=O)[nH]cnc32)OC1COC(=O)NCCCCCCNC(=O)OC(C)(C)c1ccc(-c2ccccc2)cc1` (configuration not stated), for which the EC50 was > 8.71 µM and the IC50 is > 8.71 µM.
As to `N#CC(C#N)=Cc1ccc(C#N)cc1`, the EC50 was > 141 µM and the IC50 worked out at 20.4 µM.
As to `CCCCCCC(/C=N/O)C(C)(O)CCC` (configuration not stated), the EC50 was > 112 µM and the IC50 is > 112 µM.
As to `FC(F)(F)c1cccc(C=NC23CC4CC(CC(C4)C2)C3)c1`, the EC50 is > 17 µM and the IC50 was > 17 µM.
As for `O=C1CC(CC(O)C2CCCCC2O)CC(=O)N1` (configuration not stated), the EC50 is > 200 µM and the IC50 was > 200 µM.
Take `COC(=O)c1ccc(NCC2=CC(=O)C=CC2=O)cc1O`: the EC50 was > 200 µM and the IC50 amounted to 4.47 µM.
Regarding `CC(=O)OCC1OC(N2C(S)=C(C#N)C(c3ccco3)C(C(C)=O)=C2c2ccccc2)C(OC(C)=O)C(OC(C)=O)C1OC(C)=O` (configuration not stated), the concentration giving a half-maximal response (EC50) is 95.5 µM and the IC50 is > 200 µM.
For the compound `CCC1C(c2ccccc2)=CCC(C(=O)O)C1C` (configuration not stated), the EC50 is > 200 µM and the IC50 was > 200 µM.
Take `CC(=O)C(C(C)=O)=C1CCCC(O)O1` (configuration not stated): the EC50 was > 200 µM and the half-maximal inhibitory concentration (IC50) was determined as 174 µM.
Taken in the same sequence, the figures for `N#CCc1c(C2(c3ccncc3)OCCO2)[nH]c2ccccc12` were > 117 µM and 110 µM.
On to `COc1ccccc1/C=C1\Sc2scc(-c3cccc([N+](=O)[O-])c3)[n+]2C1=O`, for which the result was inactive.
As to `O=S1(=O)C2CCCCC2(N2CCOCC2)C1c1ccccc1` (configuration not stated), the EC50 is > 407 µM and the IC50 was 45.7 µM.
With `CCCCOC(=S)SSC(=S)NCCNC(=S)SSC(=S)OCCCC`, the EC50 was > 200 µM and the half-maximal inhibitory concentration (IC50) worked out at 55 µM.
For `COc1cc2c(c(O)c1OC)c(=O)c1ccccc1n2C`, the EC50 is > 200 µM and the concentration for half-maximal inhibition (IC50) was determined as 66.1 µM.
`CC[C@@H]1CC2CN3CCc4c([nH]c5ccc(OC)cc45)C(CO)(C2)C13` (some centres not stated): the outcome was inactive.
As to `COC(=O)c1cc(Cc2cc(Br)c(OC)c(C(=O)OC)c2)cc(Br)c1OC`, the EC50 is > 200 µM and the half-maximal inhibitory concentration (IC50) came out at 162 µM.
For `CC(=O)Nc1[nH]n(C)c(=O)c1-c1nnc(C)s1`, the EC50 is > 977 µM and the concentration for half-maximal inhibition (IC50) stood at 437 µM.
Regarding `O=C(/C=C\c1cccc(O)c1)/C=C/c1cccc(O)c1`, the EC50 was 107 µM and the IC50 worked out at 112 µM.
Consider `CC(C)/C=N\N1C(N)=C(C#N)C(C#N)(C#N)C1C(C)C` (configuration not stated), for which the EC50 was > 200 µM and the IC50 is 41.7 µM.
`C[n+]1c2ccccc2c(NC(CS)C(=O)O)c2ccccc21` (configuration not stated): the outcome was inactive.
Take `C[N+](C)(Cc1ccc(NC(=O)CCCC(=O)ON2C(=O)CCC2=O)cc1)c1ccccc1`: the EC50 was > 200 µM and the IC50 came to 135 µM.
Regarding `COc1cc(C)c2c(c1)CN1CN2Cc2cc(OC)cc(C)c21`, the outcome was inactive.
Consider `COC(=O)c1ccc(CSc2ccccc2)cc1`, for which the EC50 is > 28.2 µM and the IC50 is > 28.2 µM.
Take `Nc1ncnc2c1ncn2C1CC(OC2CCCCO2)C(CO)O1` (configuration not stated): the EC50 was > 200 µM and the half-maximal inhibitory concentration (IC50) was > 200 µM.
Take `CCc1cccc(CC)c1NC1=CC(=O)C(=O)c2ccccc21`: the EC50 is > 23.4 µM and the IC50 is > 23.4 µM.
